Assay results published in US20210371817A1, “COMPOSITIONS AND METHODS FOR PRECISE PATTERNING OF POSTERIOR NEUROECTODERM FROM HUMAN PLURIPOTENT STEM CELLS” (WISCONSIN ALUMNI RESEARCH FOUNDATION, priority 2013, published 2021).
Entries after “also recorded” stand apart in the source; their conditions may differ.

Key:
neuromesodermal cells = assay: Pax6 and HoxD10 expression after GDF11 with or without dorsomorphin, then RA; assay type: cell-based, human; settings: dorsomorphin with GDF11 and throughout RA treatment
Excerpt: (FIG. 7A) Timeline of differentiation. (FIG. 7B) qPCR assessment of lumbar/sacral gene expression at day 12. A minimum concentration of GDF11 is required to activate HoxD10 and HoxA11. Each gene is normalized to the maximum GDF11 dose. Error bars are standard deviation calculated from duplicate reactions. (FIG. 7C) Expression of Pax6 in response to increased GDF11 concentrations. Data were collected by flow cytometry and represented as mean±standard deviation calculated from two biological replicates. Sox2 was uniformly expressed regardless of GDF11 treatment (data not shown). […] Grey histograms, IgG control; Red histograms, Pax6. Data are representative of two biological replicates. […] Percentages were quantified as HoxD10 labeling relative to DAPI-stained nuclei (>2500 total cells counted per sample). Scale bars, 100 μm
After neural tube closure in vivo, opposing gradients of TGFβ and SHH signaling produce distinct dorsal and ventral domains from which sensory neurons, interneurons, and motor neurons arise. Pax6, which has been identified as a neuroectoderm fate determinant, is expressed throughout most of the neural tube but is absent from the most dorsal and ventral domains. […] The ability of GDF11 to control rostral/caudal patterning is mediated by signaling via ALK5 and activation of the SMAD2/3 complex. […]

[1] = system: neuromesodermal progenitors; assay: Accelerated neuronal differentiation of neuromesodermal progenitors; assay type: cell-based, human; settings: DAPT 1 μM; within 7 days
Description: For assessment of columnar identity by FoxP1 expression, cells were bulk passaged by scraping and re-seeded in VTN-NC-coated chamber slides at a 1:200 ratio in E6 medium containing 1 μM RA and 100 nM purmorphamine (PM; Cayman Chemicals). RA/PM treatment was carried out for 7 days, followed by an additional 7 day treatment with 10 ng/ml brain-derived neurotrophic factor (BDNF; Peprotech), 10 ng/ml glial-derived neurotrophic factor (GDNF; Peprotech), and cAMP (1 μM; Sigma). For accelerated neuronal differentiation, neuromesodermal progenitors were treated with 1 μM RA, 2 μM PM, and 1 μg/ml recombinant sonic hedgehog (SHH) for 2 days, then passaged with ACCUTASE® and re-seeded in VTN-NC coated chamber slides at 1×10^4 cells/cm^2 in E6 medium containing 1 μM RA, 1 μM DAPT (Cayman Chemicals), 10 ng/ml BDNF, 10 ng/ml GDNF, and 1 μM cAMP for 7 days.
Immunocytochemistry. Immunocytochemistry was conducted as previously described. Primary antibodies against Sox2 (1:500), brachyury (1:500), Pax6 (rabbit; 1:500; Covance), N-cadherin (mouse; 1:500; BD Biosciences), Otx2 (goat; 1:500; R&D Systems), HoxB4 (rat; 1:50; DSHB), HoxD10 (goat; 1:500; R&D Systems), NeuN (mouse; 1:100; Millipore), Hb9 (mouse; 1:50; DSHB), ISL1 (mouse; 1:100; DSHB), and FoxP1 (rabbit; 1:20,000; Abcam) were utilized. Samples were visualized on a Nikon Ti-E epifluorescence microscope or a Nikon AIR confocal microscope. […]

H9 hESCs = assay: HOX, OTX2 and T gene expression by RT-PCR/qPCR during hESC differentiation with morphogens; assay type: cell-based, human
Description: hPSC differentiation. hPSCs were washed once with phosphate-buffered saline (PBS; Invitrogen), dissociated with ACCUTASE® (Invitrogen) for 3 min, and collected by centrifugation. hPSCs were then seeded onto VTN-NC-coated plates in E8 medium containing 10 μM ROCK inhibitor (Y27632; R&D Systems). Seeding density was 2×10^5 cells/cm^2. The following day, the cells were switched to E6 medium (same composition as E8 medium minus FGF2 and TGFβ 1). Morphogen treatments were then carried out according to the figures in the text. Cells were supplemented with FGF8b (100-200 ng/ml; Peprotech), CHIR99021 (3-6 μM; Tocris), and/or RA (3 μM; Sigma).
Reverse transcriptase polymerase chain reaction (RT-PCR). Total RNA was extracted from cells using TRIZOL® reagent (Invitrogen) according to the manufacturer's instructions. RNA was then subjected to reverse-transcription using a Thermoscript™ RT-PCR kit (Invitrogen) in a 20 μL mixture according to the manufacturer's instructions. The resulting cDNA was then amplified in a 25 μL mixture containing 10×PCR buffer, 0.2 mM dNTP, 1.5 mM MgCl2, 0.5 μM of each primer, and 1 U Taq DNA polymerase (Invitrogen). Amplified products were resolved on 2% agarose gels containing SYBR Safe (Invitrogen) and visualized with a VersaDoc (BioRad). Primer sequences can be found in Table 3. All amplifications were carried out for 35 cycles. HOXC5 and HOXC6 were amplified at 58° C., all others with an annealing temperature of 55° C.
Propagation and differentiation of neuromesodermal progenitors. H9 hESCs (passage 25-45), H9 ishcat2 hESCs (passage 33-43), and IMR90-4 iPSCs (passage 31-40) were maintained in E8 medium on MATRIGEL© (BD Biosciences) as previously described. To initiate differentiation, hPSCs were passaged with ACCUTASE© (Life Technologies) onto vitronectin (VTN-NC)-coated plates at a density of 1×10^5 cells/cm^2 as previously described. The following day, cells were changed to E6 medium. 24 h later, cells were changed to E6 medium containing 200 ng/ml FGF8b (Peprotech). 24 h later, cells were washed once with 2 ml PBS, treated with ACCUTASE® for 2 min, and removed from the surface by gentle pipetting. After collection by centrifugation, cells were gently resuspended in E6 medium containing 200 ng/ml FGF8b and CHIR99021 (CHIR, concentration varied depending on cell line; Tocris) and re-seeded on VTN-NC-coated plates at a density of 1.5×10^5 cells/cm^2. Medium was not changed until 48 h after passaging. This passaging process was repeated on day 3 of CHIR 99021 treatment (re-seed density of 1.2×10^5 cells/cm^2) if extended neuromesodermal propagation was required, and 50 ng/ml GDF11 (Peprotech) was added on day 4 of CHIR 99021 treatment to initiate lumbar patterning. Cells were changed to E6 medium containing 1 μM retinoic acid (RA; Sigma) to facilitate neural transition.
qPCR. Total RNA was extracted from cultured cells using TRIZOL® (Life Technologies) according to the manufacturer's instructions. After isolation, 2-5 μg of total RNA was immediately subjected to reverse transcription using the Thermoscript™ RT-PCR kit (Life Technologies) in a 20 μL reaction according to the manufacturer's instructions. […] For all experiments, ΔΔCt values for each gene were calculated relative to ribosomal protein S18 (RPS18) RNA levels and converted to fold difference assuming 100% primer efficiency, then normalized to maximum expression levels as indicated in each figure legend. […]

[2] = system: neuromesodermal progenitors; assay: Neuroectoderm or mesoderm fate transition of neuromesodermal progenitors by flow cytometry; assay type: cell-based, human
Description: Assessment of neuroectoderm or mesoderm fate transition by flow cytometry. Grey histogram, IgG control; red histogram, antigen of interest. Data are presented as mean±standard deviation calculated from two biological replicates. (FIG. 8B) For experiments in panels FIGS. 8C-8F, neuromesodermal propagation was halted by removing FGF8b/CHIR 99021/GDF11 and adding RA. Assays were conducted after 4 days of RA treatment. (FIG. 8C) HOX profiles generated after RA treatment. Each gene is normalized to its maximum expression. Error bars are standard deviation calculated from duplicate reactions. (FIG. 8D) HoxB4 and HoxD10 expression in neuroepithelial cultures after RA treatment. Scale bars, 100 m. (FIG. 8E) Purity of Sox2, Pax6, HoxB4, and HoxD10 after 4 days of RA treatment. Sox2, Pax6, and HoxB4 were quantified using flow cytometry and HoxD10 was quantified by manual counting of dissociated cells ([…]). Error bars are standard deviation calculated from at least two biological replicates. […] (FIG. 8F) Motor neuron differentiation at cervical, thoracic, and lumbar spinal cord depths, where the motor neuron precursors show region-specific patterns of FoxP1, Isl1, and Hb9 co-expression. (FIG. 8G) Neuronal maturation from cervical, thoracic, and lumbar patterned NSCs, as assessed by immunocytochemistry (top panel; DAPI (blue) is overlaid in all images; Scale bars, 20 m) and RT-PCR (50 cycles; bottom panel).
Flow cytometry. Flow cytometry was conducted as described in the Examples above. Primary antibodies against Sox2 (mouse; 1:1000; Millipore), brachyury (goat; 1:200; R&D Systems), Pax6 (mouse; 1:200; DSHB), and HoxB4 (rat; 1:50; DSHB) were utilized. Samples were run on a FACSCaliber (BD Biosciences) and data were analyzed using Cyflogic software. Positive events were quantified by gating above the top 1% of species-matched IgG controls.
We next evaluated the transition of neuromesodermal progenitors to definitive neural progenitors. RA secreted from somites in response to declining FGF signaling elicits dorsal/ventral patterning and expression of the neuroectoderm marker Pax6 in vivo^16, 26, which led us to suspect RA serves as both the neuroectoderm fate switch and HOX ‘stop signal’. We first investigated the ability of RA to initiate neuroectoderm specification from neuromesodermal progenitors. […] At any point in neuromesodermal differentiation, the addition of RA generated highly pure (>83%) Pax6^+ neuroectoderm (FIGS. 8B-8E and FIGS. 9A-9C).

IMR90-4 iPSCs = assay: Neuromesodermal differentiation from IMR90-4 iPSCs; assay type: cell-based, human
Description: FIGS. 11A-11C show neuromesodermal differentiation from IMR90-4 iPSCs. (FIG. 11A) Timeline of neuromesodermal differentiation. (FIG. 11B) Neuromesodermal identity assessed during differentiation in 2 or 3 μM CHIR 99021. Grey histograms, IgG control. Red histograms, label of interest. Data are presented as mean±standard deviation calculated from two biological replicates. […] (FIG. 11C) Colinear HOX activation observed by qPCR during neuromesodermal differentiation. Each gene is normalized to its maximum expression. Error bars are standard deviation calculated from duplicate reactions.
Differentiation was conducted according to the protocol of FIG. 11A. Neuromesodermal identity was assessed during differentiation in both 2 and 3 μM CHIR (FIG. 11B). Grey histograms are IgG control, and red histograms are the label of interest. […] During neuromesodermal propagation, progressive HOX activation was verified by qPCR (FIG. 11C).

neuromesodermal cultures = assay: Effect of signaling pathway inhibitors on neuromesodermal identity (Sox2 and T by flow cytometry); settings: for Sox2+ cells: LY-294002 10 μM, U0126 10 μM, GF109203X 3 μM, or all three at 1 μM, after 2 days
Excerpt: (FIG. 13A) Timeline of neuromesodermal differentiation and inhibitor addition. (FIG. 13B) Neuromesodermal identity assessed by Sox2 and Brachyury (T) expression after two days. Grey histograms, IgG control. Red histograms, label of interest. LY, LY-294002; U0126, U0126; Gf, GF109203X.
In an attempt to identify which downstream signaling pathways are responsible for FGF's effects, we performed our protocol with various combinations of a PI3K inhibitor (LY-294002), an MEK inhibitor (U0126), and a PKC inhibitor (GF109203X), and measured Sox2 and T levels using flow cytometry.

[3] = neuromesodermal progenitors exposed to E6 medium with the substance

c1cc(-c2cnn3cc(-c4ccc(OCCN5CCCCC5)cc4)cnc23)ccn1 [dorsomorphin]
Pax6+ cells (neuromesodermal cells): 83±4%

C[C@H](NC(=O)Cc1cc(F)cc(F)c1)C(=O)N[C@H](C(=O)OC(C)(C)C)c1ccccc1 [DAPT]
NeuN+ neuronal lineage cells [1]: > 95%

Cc1c[nH]c(-c2cnc(NCCNc3ccc(C#N)cn3)nc2-c2ccc(Cl)cc2Cl)n1 [CHIR 99021]
HOX gene activation (RT-PCR) (H9 hESCs; morphogen added to E6 medium, up to 4 days): could induce Hox gene expression; also recorded: induced progressive HOX activation from HOXA1 down to HOXC5
OTX2 expression reduction compared to RA (H9 hESCs; qPCR day 5, CHIR 99021 3 μM, RA 1 μM): > 100 fold
Effect on ability of RA to induce Pax6 expression ([2]; added with RA): repressed its ability to induce Pax6 expression
Brachyury+ cells [2, 3]: 96±1%
Sox2+ cells [2, 3]: 50±8%
Neuromesodermal identity (IMR90-4 iPSCs; 2 μM CHIR): maintained the neuromesodermal state
Neuromesodermal identity (IMR90-4 iPSCs; 3 μM CHIR): resulted in a mesodermal shift

N#CC(=C(/N)Sc1ccccc1N)/C(C#N)=C(\N)Sc1ccccc1N [U0126]
Sox2+ cells (neuromesodermal cultures): 99%

O=c1cc(N2CCOCC2)oc2c(-c3ccccc3)cccc12 [LY-294002]
Sox2+ cells (neuromesodermal cultures): 99%

CN(C)CCCn1cc(C2=C(c3c[nH]c4ccccc34)C(=O)NC2=O)c2ccccc21 [GF109203X]
maximum dose that did not kill all cells (neuromesodermal cultures): 3 µM
Sox2+ cells (neuromesodermal cultures): 99%
